Test results reported in US7452678B2, “Identification of biomarkers for liver toxicity” (Bristol-Myers Squibb Company, priority 2003, dated 2008).
Values belong to the compound of their own block, whether it stands above or below them.

Columns and labels:
[1] = Cytotoxicity in the hepatocyte culture system, inhibition of ATP synthesis (CellTiter-Glo bioluminescence); type: cell-based, human; conditions: human; hepatotoxic drugs were dosed at their IC50 for cytotoxicity, inhibition of ATP synthesis as endpoint; read-out: Concentration (IC50 value for cytotoxicity)
Excerpt: (§1) These immortalized cells are reported to be similar to quiescent normal human hepatocytes. […] The THLE-5 cell line (also named THLE-5B) was previously deposited under the terms and conditions of the Budapest Treaty at the American Type Culture Collection on Apr.
(§2) The cell line THLE-5B-3A4, which expresses the 3A4 isoform of cytochrome P450, was derived by transfection of THLE-5B-c15 with a CMV expression vector comprising a human cDNA coding for the specific P450 isoenzyme and a selection marker, using methods known in the art.
(§3) For the purposes of this study, the non-hepatotoxic drugs were administered at 50 μM (Table 1).

HHA Cells = test: as above; type: cell-based, human
Excerpt: as §1, §2, §3

THLE-5B-3A4 [2] = test: LC/LC/MS/MS peptide hits of biomarker polypeptides in conditioned media of treated hepatocytes; type: cell-based, human; conditions: 20 hr, concentrations of Table 1
Experimental: Cells were incubated for 20 hr at 37° C.
Following a single thaw in a 1 L cylinder of water at room temperature, the filtered media were concentrated by centrifugal filtration (10 kDa, Pall Gelman Laboratory, Ann Arbor, Mich.). […] After reduction, 500 nmol of iodoacetamide (Sigma) was added to each sample and incubated in the dark at room temperature for an additional 30 min. Finally, samples were diluted four-fold and 20 μg of TPCK-treated porcine trypsin (Promega, Madison, Wis.) was added to each sample prior to incubation for 18 hr at 37° C. Samples were subsequently desalted using separate C18 spin columns (Nest Group, Southboro, Mass.) before injection onto the LC/LC/MS/MS system.
The capillary column was first packed with 10 cm of C18 reversed-phase material (SelfPack Poros 10 R2, ABI, Framingham, Mass.), and this was followed by 5 cm of strong cation exchange material (Poros 20 HS SCX, ABI). A load of 200 μg of digested material, based on the total protein assay, was used for each analysis.
Each analysis included a salt step, followed by buffer wash, then a reversed phase run of increasing organic concentration. Following the completion of each successive reversed phase gradient, the salt concentration was increased, and the cycle was begun again (FIG. 2).
This separation included a 100 min analysis with a gradient of 0-40% Buffer A to B for 0 to 75 min, 40-100% B for 75-85 min, 100-0% B for 85-90 min, and finally a re-equilibration hold at 0% B for 90-100 min. The aforementioned gradients were delivered by a binary pump (1100, Agilent, Wilmington, Del.), which was split 1:200 prior to connection to the capillary column.
The mass spectrometer's capillary temp was set to 200° C., and the spray voltage was set to 2 kV. In survey scan mode, two microscans were used to acquire 9e^7 counts, with a maximum acquisition time of 1000 msec. In MS/MS mode, 3 microscans were used to acquire 2e^7 counts, with a maximum acquisition time of 300 msec. The instrument was set to trigger data dependent fragmentation of the three most intense ions detected during the MS survey scan.
The output file from the […] program was then downloaded to desktop spreadsheet programs for further statistical analysis (Excel, Microsoft, Redmond, Wash.).

THLE-5B-3A4 [3] = test system: THLE-5B-3A4
Experimental: When the cells reached confluence, the medium was removed by aspiration, and replaced with 30 ml of serum and transferrin free PMRF-4 medium (SFM) containing either vehicle (0.5% DMSO) or compound in 0.5% DMSO.
Cells were incubated for 20 hr at 37° C. Conditioned media (i.e., media incubated with cells) was collected by decanting, then syringe-filtered through 0.22 μm membrane, and stored at −70° C. before preparation for LC/LC/MS/MS analysis.
Following electrophoresis, the proteins were transferred to PVDF membrane at 30 V for 1 hr. […] Following incubation with an anti-rabbit secondary antibody (1:5000 dilution, Sigma), bands were visualized using an enhanced chemiluminescent detection system (ECL+, Amersham, Piscataway, N.J.) and imaged using a cooled charge-coupled device camera (Fluor S-Max, Bio-Rad, Hercules, Calif.). The signals from the blots were quantified using Quantity One software (Bio-Rad).
Conditioned media samples used to identify the proteins were assayed by blotting to determine presence and relative concentrations of the proteins as a function of each treatment. This was done to verify the accuracy of the mass spectral data (Table 3) and to increase the precision of the quantitative measurements.

[4] = Table 1, 8 treatments of the discovery panel
[5] = Table 2, panel of 20 treatments

peptide hits BMS-PTX-062 (THLE-5B-3A4 [2]): 27
peptide hits BMS-PTX-120 (THLE-5B-3A4 [2]): 44
peptide hits BMS-PTX-225 (THLE-5B-3A4 [2]): 25
peptide hits BMS-PTX-254 (THLE-5B-3A4 [2]): 28
peptide hits BMS-PTX-260 (THLE-5B-3A4 [2]): 24
peptide hits BMS-PTX-265 (THLE-5B-3A4 [2]): 93
peptide hits BMS-PTX-447 (THLE-5B-3A4 [2]): 82
peptide hits BMS-PTX-459 (THLE-5B-3A4 [2]): 31
peptide hits BMS-PTX-607 (THLE-5B-3A4 [2]): 6
peptide hits BMS-PTX-749 (THLE-5B-3A4 [2]): 142
peptide hits BMS-PTX-808 (THLE-5B-3A4 [2]): 14
peptide hits BMS-PTX-837 (THLE-5B-3A4 [2]): 25
peptide hits BMS-PTX-860 (THLE-5B-3A4 [2]): 9
peptide hits BMS-PTX-(29)147 (THLE-5B-3A4 [2]): 239
peptide hits BMS-PTX-(39)147 (THLE-5B-3A4 [2]): 36
SMILES: CC1(COc2ccc(CC3SC(=O)NC3=O)cc2)CCCCC1 (stereo not shown) [Ciglitazone]
IC50 [1]: 38 µM
Toxicity in HHA Cells (HHA Cells; [4]): Toxic
Toxicity in HHA Cells (HHA Cells; [5]): Toxic
change in levels of BMS-PTX-265 (THLE-5B-3A4 [3]): statistically significant (p<0.05) increase

SMILES: O=C1CN(/N=C/c2ccc(-c3ccc([N+](=O)[O-])cc3)o2)C(O)=N1 [Dantrolene]
Toxicity in HHA Cells (HHA Cells; [5]): Toxic

SMILES: O=C(O)Cc1ccccc1Nc1c(Cl)cccc1Cl [Diclofenac]
Toxicity in HHA Cells (HHA Cells; [5]): Non-Toxic

SMILES: C#C[C@]1(O)CC[C@H]2[C@@H]3CCc4cc(O)ccc4[C@H]3CC[C@@]21C [Ethinyl Estradiol]
Toxicity in HHA Cells (HHA Cells; [5]): Non-Toxic

peptide hits BMS-PTX-062 (THLE-5B-3A4 [2]): 29
peptide hits BMS-PTX-120 (THLE-5B-3A4 [2]): 35
peptide hits BMS-PTX-225 (THLE-5B-3A4 [2]): 10
peptide hits BMS-PTX-254 (THLE-5B-3A4 [2]): 14
peptide hits BMS-PTX-260 (THLE-5B-3A4 [2]): 21
peptide hits BMS-PTX-265 (THLE-5B-3A4 [2]): 49
peptide hits BMS-PTX-447 (THLE-5B-3A4 [2]): 54
peptide hits BMS-PTX-459 (THLE-5B-3A4 [2]): 24
peptide hits BMS-PTX-607 (THLE-5B-3A4 [2]): 13
peptide hits BMS-PTX-749 (THLE-5B-3A4 [2]): 87
peptide hits BMS-PTX-808 (THLE-5B-3A4 [2]): 10
peptide hits BMS-PTX-837 (THLE-5B-3A4 [2]): 15
peptide hits BMS-PTX-860 (THLE-5B-3A4 [2]): 15
peptide hits BMS-PTX-(29)147 (THLE-5B-3A4 [2]): 128
peptide hits BMS-PTX-(39)147 (THLE-5B-3A4 [2]): 24
SMILES: Cc1oc(-c2ccccc2)nc1CCOc1ccc(C[C@H](Nc2ccccc2C(=O)c2ccccc2)C(=O)O)cc1 [Farglitazar]
IC50 [1]: 8.61 µM
Toxicity in HHA Cells (HHA Cells; [4]): Toxic
Toxicity in HHA Cells (HHA Cells; [5]): Toxic
change in levels of BMS-PTX-265 (THLE-5B-3A4 [3]): statistically significant (p<0.05) increase

SMILES: CC(C)Cc1ccc(C(C)C(=O)O)cc1 (stereo not shown) [Ibuprofen]
Toxicity in HHA Cells (HHA Cells; [5]): Non-Toxic

SMILES: C1CCC(C(CC2CCCCN2)C2CCCCC2)CC1 (stereo not shown) [Perhexilene]
Toxicity in HHA Cells (HHA Cells; [5]): Toxic

SMILES: CCc1ccc(CCOc2ccc(CC3SC(=O)NC3=O)cc2)nc1 (stereo not shown) [Pioglitazone]
Toxicity in HHA Cells (HHA Cells; [5]): Non-Toxic

SMILES: CCO[C@@H](Cc1ccc(OCCN2c3ccccc3Oc3ccccc32)cc1)C(=O)O [Ragaglitazar]
Toxicity in HHA Cells (HHA Cells; [5]): Non-Toxic

SMILES: O=C(c1ccc(OCCN2CCCCC2)cc1)c1c(-c2ccc(O)cc2)sc2cc(O)ccc12 [Raloxifene]
Toxicity in HHA Cells (HHA Cells; [5]): Toxic

SMILES: CC(C)c1nc(CN(C)C(=O)N[C@H](C(=O)N[C@@H](Cc2ccccc2)C[C@H](O)[C@H](Cc2ccccc2)NC(=O)OCc2cncs2)C(C)C)cs1 [Ritonavir]
Toxicity in HHA Cells (HHA Cells; [4]): Toxic
Toxicity in HHA Cells (HHA Cells; [5]): Toxic

SMILES: CN(CCOc1ccc(CC2SC(=O)NC2=O)cc1)c1ccccn1 (stereo not shown) [Rosiglitazone]
Toxicity in HHA Cells (HHA Cells; [4]): Non-Toxic
Toxicity in HHA Cells (HHA Cells; [5]): Non-Toxic

SMILES: CC/C(=C(\c1ccccc1)c1ccc(OCCN(C)C)cc1)c1ccccc1 [Tamoxifen]
Toxicity in HHA Cells (HHA Cells; [5]): Toxic

peptide hits BMS-PTX-062 (THLE-5B-3A4 [2]): 1
peptide hits BMS-PTX-120 (THLE-5B-3A4 [2]): 3
peptide hits BMS-PTX-225 (THLE-5B-3A4 [2]): 0
peptide hits BMS-PTX-254 (THLE-5B-3A4 [2]): 1
peptide hits BMS-PTX-260 (THLE-5B-3A4 [2]): 0
peptide hits BMS-PTX-265 (THLE-5B-3A4 [2]): 8
peptide hits BMS-PTX-447 (THLE-5B-3A4 [2]): 6
peptide hits BMS-PTX-459 (THLE-5B-3A4 [2]): 8
peptide hits BMS-PTX-607 (THLE-5B-3A4 [2]): 0
peptide hits BMS-PTX-749 (THLE-5B-3A4 [2]): 6
peptide hits BMS-PTX-808 (THLE-5B-3A4 [2]): 1
peptide hits BMS-PTX-837 (THLE-5B-3A4 [2]): 8
peptide hits BMS-PTX-860 (THLE-5B-3A4 [2]): 0
peptide hits BMS-PTX-(29)147 (THLE-5B-3A4 [2]): 31
peptide hits BMS-PTX-(39)147 (THLE-5B-3A4 [2]): 1
SMILES: CCO[C@@H](Cc1ccc(OCCc2ccc(OS(C)(=O)=O)cc2)cc1)C(=O)O [Tesaglitazar]
Toxicity in HHA Cells (HHA Cells; [4]): Non-Toxic
Toxicity in HHA Cells (HHA Cells; [5]): Non-Toxic

SMILES: CN1CCN(CCCN2c3ccccc3Sc3ccc(C(F)(F)F)cc32)CC1 [Trifluoperazine]
Toxicity in HHA Cells (HHA Cells; [5]): Toxic

peptide hits BMS-PTX-062 (THLE-5B-3A4 [2]): 4
peptide hits BMS-PTX-120 (THLE-5B-3A4 [2]): 12
peptide hits BMS-PTX-225 (THLE-5B-3A4 [2]): 11
peptide hits BMS-PTX-254 (THLE-5B-3A4 [2]): 7
peptide hits BMS-PTX-260 (THLE-5B-3A4 [2]): 4
peptide hits BMS-PTX-265 (THLE-5B-3A4 [2]): 66
peptide hits BMS-PTX-447 (THLE-5B-3A4 [2]): 33
peptide hits BMS-PTX-459 (THLE-5B-3A4 [2]): 14
peptide hits BMS-PTX-607 (THLE-5B-3A4 [2]): 7
peptide hits BMS-PTX-749 (THLE-5B-3A4 [2]): 60
peptide hits BMS-PTX-808 (THLE-5B-3A4 [2]): 10
peptide hits BMS-PTX-837 (THLE-5B-3A4 [2]): 17
peptide hits BMS-PTX-860 (THLE-5B-3A4 [2]): 4
peptide hits BMS-PTX-(29)147 (THLE-5B-3A4 [2]): 67
peptide hits BMS-PTX-(39)147 (THLE-5B-3A4 [2]): 19
SMILES: Cc1c(C)c2c(c(C)c1O)CCC(C)(COc1ccc(CC3SC(=O)NC3=O)cc1)O2 (stereo not shown) [Troglitazone]
IC50 [1]: 32.7 µM
Toxicity in HHA Cells (HHA Cells; [4]): Toxic
Toxicity in HHA Cells (HHA Cells; [5]): Toxic
change in levels of BMS-PTX-265 (THLE-5B-3A4 [3]): statistically significant (p<0.05) increase
